These results are taken from BindingDB's records for patent US11028085 (Nimbus Saturn, 2021).

This test deals with Mitogen-activated protein kinase kinase kinase kinase 1 (Homo sapiens, UniProt Q92918). The experiment in a line: Biochemical Enzyme Assay. The protocol: HPK1 biochemical enzyme assay: HPK1 enzyme inhibition was measured using a microfluidic mobility shift assay. […] Test compounds were titrated in ten point curves (top final assay concentration […]), and preincubated with enzyme/substrate mix for 30 min prior to initiation of the reaction by addition of ATP (1 mM final concentration) and substrate ([…] final concentration; Carna Biosciences) diluted in assay buffer supplemented by MgCl2 (final assay concentration of 5 mM). Following 60 min incubation at RT, the reaction was terminated by addition of 60 µl/well termination buffer (Carna Biosciences) and signal determination using a Caliper EZ Reader (Perkin Elmer, UK).
Mitogen-activated protein kinase kinase kinase kinase 1, sequence (Q92918 whole entry): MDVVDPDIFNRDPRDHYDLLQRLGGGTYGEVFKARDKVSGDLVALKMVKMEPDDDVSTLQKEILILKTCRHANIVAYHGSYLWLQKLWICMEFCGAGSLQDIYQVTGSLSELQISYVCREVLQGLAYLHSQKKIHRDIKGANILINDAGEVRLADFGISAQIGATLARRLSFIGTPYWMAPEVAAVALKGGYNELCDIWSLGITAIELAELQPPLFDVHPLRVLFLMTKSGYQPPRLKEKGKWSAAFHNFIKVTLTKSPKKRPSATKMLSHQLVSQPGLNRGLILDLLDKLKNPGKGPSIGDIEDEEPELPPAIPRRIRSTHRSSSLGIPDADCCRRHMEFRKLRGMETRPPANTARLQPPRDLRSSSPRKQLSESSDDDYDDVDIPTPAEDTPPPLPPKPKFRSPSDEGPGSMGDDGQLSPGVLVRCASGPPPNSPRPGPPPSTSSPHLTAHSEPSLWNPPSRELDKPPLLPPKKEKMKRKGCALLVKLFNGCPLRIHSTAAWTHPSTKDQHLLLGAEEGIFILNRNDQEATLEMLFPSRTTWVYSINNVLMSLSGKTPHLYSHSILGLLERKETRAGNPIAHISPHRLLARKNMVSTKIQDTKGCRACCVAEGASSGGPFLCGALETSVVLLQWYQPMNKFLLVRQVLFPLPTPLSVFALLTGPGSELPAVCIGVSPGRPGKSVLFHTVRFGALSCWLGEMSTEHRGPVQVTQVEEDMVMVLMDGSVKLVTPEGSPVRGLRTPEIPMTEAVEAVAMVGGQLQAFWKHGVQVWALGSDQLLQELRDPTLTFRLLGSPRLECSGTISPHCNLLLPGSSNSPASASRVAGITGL

With `CCOc1c(C#N)cnn2c(-c3ccc(Nc4ccc(N5CCC(O)CC5)cn4)c4c3CNC4=O)cnc12` [US11028085, Compound I-185], the IC50 (commonly the concentration at which inhibition is half-maximal) was “in the range around 550 nM”.

The compound `CN1CC(c2ccn3c(-c4ccc(Nc5ccc(N6CCC(O)CC6)cc5)c5c4CNC5=O)cnc3c2)C1` [US11028085, Compound I-411] returned an IC50 of less than 100 nM.
